Results taken from patent publication US9376506B2, “Method for producing sialic-acid-containing sugar chain” (GLYTECH, INC., priority 2011, dated 2016).
Read-outs that look alike come from different tables or passages of the source.

Key:
[1] = Stability of CMP-Neu5Ac (CMP formation, HPLC); format: physicochemical; details: 5 mM CMP-Neu5Ac/0.1 M MOPS (pH 7.3), after 24 hours
Procedure: In order to confirm whether CMP was formed by the degradation of the substrate donor CMP-Neu5Ac, 5 mM CMP-Neu5Ac/0.1 M MOPS (pH 7.3) was incubated at 25° C., 30° C., 33° C., or 37° C., and the amount of CMP formed was measured. The measurement was performed by HPLC using a column TSKgel SuperQ-5PW (7.5×75 mm; Tosoh Corp.) and 50 mM KPi (pH 8.0) as a solvent. A UV detector (detection wavelength: 254 nm) was used for the detection. The degree of CMP formation was indicated by [Peak area of CMP]/[Peak area of CMP+Peak area of CMP-Neu5Ac]×100(%). After 24 hours, 45% CMP was formed at 37° C., whereas 21% CMP was formed at 30° C., which was about half of that formed at 37° C.

ST6Gal-I = target: T1, ST6Gal-I (Homo sapiens, UniProt P15907); details: 0.25 mM CMP, cited from earlier work
T1 sequence (P15907 1-406): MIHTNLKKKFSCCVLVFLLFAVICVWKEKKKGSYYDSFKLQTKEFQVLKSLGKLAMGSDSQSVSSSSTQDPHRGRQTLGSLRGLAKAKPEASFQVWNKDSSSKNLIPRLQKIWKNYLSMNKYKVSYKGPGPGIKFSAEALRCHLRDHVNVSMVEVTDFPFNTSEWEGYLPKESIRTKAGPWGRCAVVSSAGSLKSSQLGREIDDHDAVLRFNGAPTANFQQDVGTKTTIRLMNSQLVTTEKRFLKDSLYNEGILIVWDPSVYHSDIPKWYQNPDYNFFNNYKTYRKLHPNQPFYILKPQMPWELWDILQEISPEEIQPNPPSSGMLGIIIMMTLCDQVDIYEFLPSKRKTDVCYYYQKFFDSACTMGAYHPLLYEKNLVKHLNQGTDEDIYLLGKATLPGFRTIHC

SMILES	CMP formed, [Peak area of CMP]/[Peak area of CMP+Peak area of CMP-Neu5Ac]×100 ([1]; 30° C.)	CMP formed, [Peak area of CMP]/[Peak area of CMP+Peak area of CMP-Neu5Ac]×100 ([1]; 37° C.)	product inhibition of ST6Gal-I by CMP (ST6Gal-I; Non Patent Literature 5)	product inhibition of ST6Gal-I by CMP (ST6Gal-I; Non Patent Literature 6)
CC(=O)N[C@H]1[C@H]([C@H](O)[C@H](O)CO)O[C@](OP(=O)(O)OC[C@H]2O[C@@H](n3ccc(N)nc3=O)[C@H](O)[C@@H]2O)(C(=O)O)C[C@@H]1O [CMP-Neu5Ac, CMP-N-acetylneuraminic acid]	21%	45%		
Nc1ccn([C@@H]2O[C@H](COP(=O)(O)O)[C@@H](O)[C@H]2O)c(=O)n1 [CMP, cytidine monophosphate]			49%	71%
